According to the NIST ThermoML archive (doi:10.1021/acs.jced.5b01024):
Numbers after ± are expanded uncertainties.

Assay: refractive index (Na D-line) (dimensionless)
Settings: 294.15 K; 100 kPa; Liquid; Standard Abbe refractometry

refractive index	SMILES
1.39782 ± 0.00042	CCCCO [butan-1-ol]
1.3846 ± 0.00042	CCCO [propan-1-ol]
1.33285 ± 0.00042	O [water]
